Data: patent US20020137929A1, “1 - (3-heterocyclylphenyl) isothiourea, -isourea, -guanidine and -amidine herbicidal agents” (Intellectual Property Department, BASF Aktiengesellschaft, priority 1998, published 2002)

Tests used:
[1] = tested on: ABUTH (Velvetleaf); experiment: Preemergence herbicidal evaluation; assay type: in vivo, Abutilon theophrasti; conditions: preemergence, rated 4-5 weeks after treatment, 0-9 scale
Summary of the method: (§1)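 Scores (0–9) reflect visual comparison with control plants for stand, vigor, malformation, size and chlorosis. Compound was applied to the soil after sowing, before emergence, as an aqueous acetone spray (about 0.0156–0.500 kg/ha), and cups were kept in a greenhouse for 4–5 weeks.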

[2] = tested on: TRZAWR (Wheat, Winter, cv Riband); experiment: Preemergence herbicidal evaluation; assay type: in vivo, Triticum aestivum; conditions: preemergence, rated 4-5 weeks after treatment, 0-9 scale
Summary of the method: as §1

[3] = tested on: ECHORC (Watergrass (Calif.)); experiment: Preemergence weed control under flooded paddy conditions; assay type: in vivo, Echinochloa oryzoides; conditions: rated 3-4 weeks after treatment
Summary of the method: (§2)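 Seeds or propagules sown in top 0.5 cm of silt loam soil, flooded 1.5 to 3 cm above surface throughout. Compound in 50/50 v/v aqueous/acetone pipetted into flood water at about 0.0313 to 0.500 kg/ha. Visual 0-9 rating versus control after three to four weeks in greenhouse.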

[4] = tested on: CYPIR (Rice Flatsedge); experiment: as above; assay type: in vivo, Cyperus iria; conditions: rated 3-4 weeks after treatment
Summary of the method: as §2

[5] = tested on: SAGPY (Arrowhead (Pygmaea)); experiment: as above; assay type: in vivo, Sagittaria pygmaea; conditions: rated 3-4 weeks after treatment
Summary of the method: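 Ratings on a 0-9 visual scale cover stand, vigor, malformation, size, chlorosis and overall appearance relative to a control, taken three to four weeks post-treatment. Application was into flood water over freshly sown silt loam at roughly 0.0313 to 0.500 kg/ha.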

[6] = tested on: MOOVA (Monochoria); experiment: Postemergence weed control under flooded paddy conditions; assay type: in vivo, Monochoria vaginalis; conditions: postemergence weeds, rated 3 to 4 weeks after treatment
Summary of the method: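 Weeds 3 to 5 cm tall and rice seedlings at the 1.5 to 2.5 leaf stage were flooded, with water held 1.5 to 3 cm above the soil. Compounds in 50/50 v/v aqueous/acetone went into the flood water at about 0.0313 to 0.500 kg/ha. Visual 0-9 ratings versus control were made 3 to 4 weeks later.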

SMILES | ABUTH rating ([1]; 0.1250 kg/ha) | ABUTH rating ([1]; 0.2500 kg/ha) | TRZAWR rating ([2]; 0.1250 kg/ha) | TRZAWR rating ([2]; 0.2500 kg/ha) | ECHORC herbicidal effect rating ([3]; 0.0313 kg/ha) | ECHORC herbicidal effect rating ([3]; 0.0625 kg/ha) | ECHORC herbicidal effect rating ([3]; 0.1250 kg/ha) | ECHORC herbicidal effect rating ([3]; 0.2500 kg/ha) | CYPIR herbicidal effect rating ([4]; 0.0313 kg/ha) | CYPIR herbicidal effect rating ([4]; 0.0625 kg/ha) | CYPIR herbicidal effect rating ([4]; 0.1250 kg/ha) | CYPIR herbicidal effect rating ([4]; 0.2500 kg/ha) | SAGPY herbicidal effect rating ([5]; 0.0313 kg/ha) | SAGPY herbicidal effect rating ([5]; 0.0625 kg/ha) | SAGPY herbicidal effect rating ([5]; 0.1250 kg/ha) | SAGPY herbicidal effect rating ([5]; 0.2500 kg/ha) | Herbicidal rating MOOVA ([6]; Rate 0.0313 kg/ha) | Herbicidal rating MOOVA ([6]; Rate 0.0625 kg/ha) | Herbicidal rating MOOVA ([6]; Rate 0.1250 kg/ha) | Herbicidal rating MOOVA ([6]; Rate 0.2500 kg/ha) | other results
CN1C(=O)C(CC(N)=O)SC1=Nc1cc(-n2c(=O)cc(C(F)(F)F)n(C)c2=O)c(F)cc1Cl (stereo not drawn) [Compound 92, 2-{{2-Chloro-5-[3,6-dihydro-3-methyl-2,6-dioxo-4-(trifluoromethyl)-1(2H)-pyrimidinyl]-4-fluorophenyl}imino}-3-methyl-4-oxo-5-thiazolidineacetamide] | 9.0 | 9.0 | 0.0 | 2.0 | 0.0 | 0.0 | 2.0 | 3.0 | 3.0 | 3.0 | 5.0 | 7.0 | 0.0 | 0.0 | 4.0 | 9.0 | 9.0 | 9.0 | 9.0 | 9.0 | ABUTH rating ([1]; 0.0156 kg/ha): 0.0; ABUTH rating ([1]; 0.0313 kg/ha): 3.0; ABUTH rating ([1]; 0.0625 kg/ha): 9.0; TRZAWR rating ([2]; 0.0156 kg/ha): 0.0; TRZAWR rating ([2]; 0.0313 kg/ha): 0.0; TRZAWR rating ([2]; 0.0625 kg/ha): 0.0
C=CCN1C(=O)C(CC(=O)OC(C)C(=O)OCC)SC1=Nc1cc(-n2c(=O)ccn(C)c2=O)c(F)cc1Cl [Compound 94, 3-Allyl-2-{{2-chloro-5-[3,6-dihydro-3-methyl-2,6-dioxo-1(2H)-pyrimidinyl]-4-fluorophenyl}imino}-4-oxo-5-thiazolidineacetic acid, ester with ethyl lactate, (R,S)-] | 9.0 | 9.0 | 0.0 | 0.0 | 0.0 | 0.0 | 2.0 | 7.0 | 0.0 | 3.0 | 4.0 | 4.0 | 0.0 | 0.0 | 5.0 | 9.0 | 9.0 | 9.0 | 9.0 | 9.0 | ABUTH rating ([1]; 0.0156 kg/ha): 0.0; ABUTH rating ([1]; 0.0313 kg/ha): 9.0; ABUTH rating ([1]; 0.0625 kg/ha): 9.0; TRZAWR rating ([2]; 0.0156 kg/ha): 0.0; TRZAWR rating ([2]; 0.0313 kg/ha): 0.0; TRZAWR rating ([2]; 0.0625 kg/ha): 0.0
C=CCN1C(=O)C(CC(N)=O)SC1=Nc1cc(-n2c(=O)cc(C(F)(F)F)n(C)c2=O)c(F)cc1Cl (stereo not drawn) [Compound 99, 3-Allyl-2-{{2-chloro-5-[3,6-dihydro-3-methyl-2,6-dioxo-4-(trifluoromethyl)-1(2H)-pyrimidinyl]-4-fluorophenyl}imino}-4-oxo-5-thiazolidineacetamide] | 9.0 | 9.0 | 1.0 | 4.0 | 0.0 | 0.0 | 0.0 | 0.0 | 0.0 | 0.0 | 0.0 | 0.0 | 0.0 | 0.0 | 3.0 | 4.0 | 9.0 | 9.0 | 9.0 | 9.0 | ABUTH rating ([1]; 0.0156 kg/ha): 9.0; ABUTH rating ([1]; 0.0313 kg/ha): 9.0; ABUTH rating ([1]; 0.0625 kg/ha): 9.0; ABUTH rating ([1]; 0.5000 kg/ha): 9.0; TRZAWR rating ([2]; 0.0156 kg/ha): 0.0; TRZAWR rating ([2]; 0.0313 kg/ha): 0.0; TRZAWR rating ([2]; 0.0625 kg/ha): 1.0; TRZAWR rating ([2]; 0.5000 kg/ha): 5.0; ECHORC herbicidal effect rating ([3]; 0.5000 kg/ha): 4.0; CYPIR herbicidal effect rating ([4]; 0.5000 kg/ha): 0.0; SAGPY herbicidal effect rating ([5]; 0.5000 kg/ha): 4.0; Herbicidal rating MOOVA ([6]; Rate 0.5000 kg/ha): 9.0
CCOC(=O)CN1C(=O)C(CC(=O)NS(=O)(=O)c2ccccc2)SC1=Nc1cc(-n2c(=O)cc(C(F)(F)F)n(C)c2=O)c(F)cc1Cl (stereo not drawn) [Compound 100, Ethyl 2-{{2-chloro-5-[3,6-dihydro-3-methyl-2,6-dioxo-4-(trifluoromethyl)-1(2H)-pyrimidinyl]-4-fluorophenyl}imino}-4-oxo-5-{[(phenylsulfonyl)-carbamoyl]methyl]-3-thiazolidineacetate] | 2.0 | 9.0 | 1.0 | 0.0 | 0.0 | 0.0 | 0.0 | 3.0 | 0.0 | 0.0 | 0.0 | 4.0 | 0.0 | 0.0 | 0.0 | 4.0 | 9.0 | 9.0 | 9.0 | 9.0 | ABUTH rating ([1]; 0.0313 kg/ha): 0.0; ABUTH rating ([1]; 0.0625 kg/ha): 0.0; ABUTH rating ([1]; 0.5000 kg/ha): 9.0; TRZAWR rating ([2]; 0.0313 kg/ha): 0.0; TRZAWR rating ([2]; 0.0625 kg/ha): 0.0; TRZAWR rating ([2]; 0.5000 kg/ha): 1.0; ECHORC herbicidal effect rating ([3]; 0.5000 kg/ha): 4.0; CYPIR herbicidal effect rating ([4]; 0.5000 kg/ha): 9.0; SAGPY herbicidal effect rating ([5]; 0.5000 kg/ha): 6.0; Herbicidal rating MOOVA ([6]; Rate 0.5000 kg/ha): 9.0
CCOC(=O)CN1C(=O)C(CC(=O)NS(=O)(=O)CC)SC1=Nc1cc(-n2c(=O)cc(C(F)(F)F)n(C)c2=O)c(F)cc1Cl (stereo not drawn) [Compound 103, Ethyl 2-{{2-chloro-5-[3,6-dihydro-3-methyl-2,6-dioxo-4-(trifluoromethyl)-1(2H)-pyrimidinyl]-4-fluorophenyl}imino}-5-{[(ethylsulfonyl)carbamoyl]-methyl}-4-oxo-3-thiazolidineacetate] | 9.0 | 9.0 | 0.0 | 0.0 | 4.0 | 4.0 | 5.0 | 6.0 | 4.0 | 6.0 | 9.0 | 9.0 | 7.0 | 9.0 | 9.0 | 9.0 | 5.0 | 7.0 | 9.0 | 9.0 | ABUTH rating ([1]; 0.0313 kg/ha): 9.0; ABUTH rating ([1]; 0.0625 kg/ha): 9.0; ABUTH rating ([1]; 0.5000 kg/ha): 9.0; TRZAWR rating ([2]; 0.0313 kg/ha): 0.0; TRZAWR rating ([2]; 0.0625 kg/ha): 0.0; TRZAWR rating ([2]; 0.5000 kg/ha): 1.0
CCS(=O)(=O)NC(=O)CC1SC(=Nc2cc(-n3c(=O)cc(C(F)(F)F)n(C)c3=O)c(F)cc2Cl)N(C)C1=O (stereo not drawn) [Compound 105, 2-{{2-Chloro-5-[3,6-dihydro-3-methyl-2,6-dioxo-4-(trifluoromethyl)-1(2H)-pyrimidinyl]-4-fluorophenyl}imino}-N-(ethylsulfonyl)-3-methyl-4-oxo-5-thiazolidineacetamide] | 7.0 | 9.0 | 0.0 | 0.0 | 0.0 | 3.0 | 4.0 | 5.0 | 5.0 | 7.0 | 7.0 | 9.0 | 3.0 | 5.0 | 5.0 | 7.0 | 6.0 | 7.0 | 7.0 | 9.0 | ABUTH rating ([1]; 0.5000 kg/ha): 9.0; TRZAWR rating ([2]; 0.5000 kg/ha): 0.0
